Results on 24 compounds are retold here after patent US8536187B2 (Gilead Sciences, Inc., priority 2008, dated 2013).

Each structure is given as a SMILES string.

Data set [1] can be described thus: CC50 assay (CellTiter-Glo) in Huh-7 HCV replicon cells. It is filed as cell-based. The settings on record: human. In outline:
(§1)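 Huh-7 cells carrying HCV replicon (6000/well) incubated with serially diluted compound, 0.5% DMSO final, 3 days at 37° C, 5% CO2. EC50 from luciferase luminescence after 30 min lysis/substrate at room temperature; CC50 from CellTiter-Glo luminescence after 10 min at room temperature.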
For orientation: ATP-based viability assays read luminescence as a measure of living cells.

For data set [2], the system named is HCV replicon in human hepatoma Huh-7 cell line. The experiment in a line: Anti-HCV replicon assay, EC50 (luciferase luminescence). In kind it is cell-based. The settings on record: Hepatitis C virus, Huh-7, 72 h. In outline:
as §1

The term CC50 denotes the concentration giving 50% cytotoxicity. Low values mean greater toxicity to the cells, high ones lower toxicity to the cells. A word on the EC50: it is the concentration that produces a half-maximal response. Turning to `CC(C)Oc1ccc(-c2ccc3nc(NCc4ccc(-n5cncn5)cc4)nc(NCC(F)(F)F)c3n2)cn1` [Example 240, N^2-(4-(1H-1,2,4-triazol-1-yl)benzyl)-6-(6-isopropoxy-pyridin-3-yl)-N^4-(2,2,2-trifluoroethyl)pyrido[3,2-d] pyrimidine-2,4-diamine], the half-maximal cytotoxic concentration (CC50) at 3 days in data set [1] (Table 2, 3 days incubation) was over 10 µM. The EC50 in data set [2] was under 100 nM.
In data set [1] (Table 2, 3 days incubation), `C[C@@H](Nc1nc(NC2(C(F)(F)F)CC2)c2nc(-c3ccc(F)cc3)ccc2n1)c1ccc(S(N)(=O)=O)cc1` [Example 24, (R)-4-{1-[6-(4-fluorophenyl)-4-(1-trifluoromethyl-cyclopropylamino)-pyrido[3,2-d]pyrimidin-2-ylamino]-ethyl}-benzenesulfonamide] came in with a CC50 at 3 days of over 10 µM. The concentration for a half-maximal effect (EC50) in data set [2] was under 100 nM.
On the same counts, the results for `CC(C)Oc1ccc(-c2ccc3nc(NCc4ccc(-n5cccn5)cc4)nc(NCC(F)(F)F)c3n2)cn1` [Example 242, N^2-(4-(1H-pyrazol-1-yl)benzyl)-6-(6-isopropoxypyridin-3-yl)-N^4-(2,2,2-trifluoroethyl)pyrido [3,2-d]pyrimidine-2,4-diamine] are 1 to 10 µM and under 100 nM.
`COc1ccc(-c2ccc3nc(NCc4ccc(S(N)(=O)=O)cc4)nc(NCC(F)(F)F)c3n2)cc1S(=O)(=O)C1CC1` [Example 157, 4-((6-(3-(cyclopropylsulfonyl)-4-methoxyphenyl)-4-(2,2,2-trifluoroethylamino)pyrido [3,2-d]pyrimidin-2-ylamino)methyl)benzenesulfonamide]: in data set [1] (Table 2, 3 days incubation), the CC50 at 3 days is over 10 µM. This compound also registered an EC50 in data set [2] of under 100 nM.
`Cc1ccc(-c2ccc3nc(NCc4ccc(-n5cncn5)cc4)nc(NC4(C(F)(F)F)CC4)c3n2)cc1S(N)(=O)=O` [Example 42, 5-(2-(4-(1H-1,2,4-triazol-1-yl)benzylamino)-4-(1-(trifluoromethyl)cyclopropyl-amino)pyrido[3,2-d]pyrimidin-6-yl)-2-methylbenzene-sulfonamide]: the CC50 at 3 days in data set [1] (Table 2, 3 days incubation) was 1 to 10 µM. The concentration giving a half-maximal response (EC50) in data set [2] is under 100 nM.
On the same counts, the results for `CC#Cc1ccc2nc(N[C@H](C)c3ccc(S(N)(=O)=O)cc3)nc(OC3CC3)c2n1` [Example 309, (R)-4-(1-(4-cyclopropoxy-6-(prop-1-ynyl)pyrido[3,2-d]pyrimidin-2-ylamino)ethyl) benzenesulfonamide] are over 10 µM and under 100 nM.
On the same counts, the results for `CC#Cc1ccc2nc(N[C@H](C)c3ccc(S(N)(=O)=O)cc3)nc(O[C@@H]3C[C@@H]4C[C@@H]4C3)c2n1` [Example 313, 4-((R)-1-(4-((1S,3r,5R)-bicyclo[3.1.0]hexan-3-yloxy)-6-(prop-1-ynyl)pyrido[3,2-d]pyrimidin-2-ylamino)ethyl) benzenesulfonamide] are over 10 µM and under 100 nM.
For the compound `NS(=O)(=O)c1ccc(CNc2nc(NCC(F)(F)F)c3nc(-c4ccc(F)cc4)ccc3n2)cc1C(F)(F)F` [Example 9, 4-{[6-(4-Fluoro-phenyl)-4-(2,2,2-trifluoro-ethylamino)-pyrido[3,2-d]pyrimidin-2-ylamino]-methyl}-2-trifluoromethyl-benzenesulfonamide], the cytotoxic concentration (CC50) at 3 days in data set [1] (Table 1, 3 days incubation) is over 25 µM. The EC50 in data set [2] lay within 250 to 2000 nM.
For `CCOc1ccc(-c2ccc3nc(N[C@H]4CCN(C(=O)[C@H](NC(=O)OC)C(C)C)C4)nc(NCC(F)(F)F)c3n2)cc1S(N)(=O)=O` [Example 266, methyl (R)-1-((S)-3-(6-(4-ethoxy-3-(aminosulfonyl)phenyl)-4-(2,2,2-trifluoroethylamino)pyrido[3,2-d]pyrimidin-2-ylamino)pyrrolidin-1-yl)-3-methyl-1-oxobutan-2-ylcarbamate], in data set [1] (Table 2, 3 days incubation), the CC50 at 3 days is 1 to 10 µM. Further, the 50% effective concentration (EC50) in data set [2] was under 100 nM.
`COc1ccc(-c2ccc3nc(NCc4cccc(-n5cncn5)c4)nc(NC4(C(F)(F)F)CC4)c3n2)cc1S(C)(=O)=O` [Example 39, N^2-(3-(1H-1,2,4-triazol-1-yl)benzyl)-6-(4-methoxy-3-(methylsulfonyl)phenyl)-N^4-(1-(trifluoromethyl)cyclopropyl) pyrido[3,2-d]pyrimidine-2,4-diamine] yielded a cytotoxic concentration (CC50) at 3 days in data set [1] (Table 2, 3 days incubation) of over 10 µM. In addition, in data set [2], the half-maximal effective concentration (EC50) is under 100 nM.
The like results for `NS(=O)(=O)c1cccc(CNc2nc(NC3(C(F)(F)F)CCCCC3)c3nc(-c4ccc(F)cc4)ccc3n2)c1` [Example 66, 3-((6-(4-fluorophenyl)-4-(1-(trifluoromethyl)cyclohexylamino)pyrido[3,2-d]pyrimidin-2-ylamino)methyl)benzene-sulfonamide] were, in that order, over 10 µM and 100 to 250 nM.
On the same counts, the results for `CC(C)(C)NS(=O)(=O)c1cc(F)cc(CNc2nc(NC3(C(F)(F)F)CC3)c3nc(-c4ccc(Cl)c(S(C)(=O)=O)c4)ccc3n2)c1` [Example 38, N-tert-butyl-3-((6-(4-chloro-3-(methylsulfonyl)phenyl)-4-(1-(trifluoromethyl)cyclopropyl-amino)pyrido[3,2-d]pyrimidin-2-ylamino)methyl)-5-fluorobenzenesulfonamide] are over 10 µM and under 100 nM.
`COc1ccc(-c2ccc3nc(NCc4ccc(S(N)(=O)=O)cc4)nc(NCC(F)(F)F)c3n2)cc1C(F)(F)F` [Example 228, 4-((6-(4-methoxy-3-(trifluoromethyl)phenyl)-4-(2,2,2-trifluoroethylamino)pyrido[3,2-d]pyrimidin-2-ylamino)methyl)benzene-sulfonamide] showed a CC50 at 3 days in data set [1] (Table 2, 3 days incubation) of over 10 µM. In data set [2], this compound returned an EC50 of 250 to 2000 nM.
On the same counts, the results for `CC(C)Oc1nc(NCc2ccc(-n3cncn3)cc2)nc2ccc(C#CC3CC3)nc12` [Example 308, N-(4-(1H-1,2,4-triazol-1-yl)benzyl)-6-(2-cyclopropyl-ethynyl)-4-isopropoxypyrido [3,2-d]pyrimidin-2-amine] are over 10 µM and 250 to 2000 nM.
In turn, `Fc1ccc(-c2ccc3nc(NCc4cc(F)cc(-n5cncn5)c4)nc(NC4(C(F)(F)F)CC4)c3n2)cc1` [Example 128, N^2-(3-fluoro-5-(1H-1,2,4-triazol-1-yl)benzyl)-6-(4-fluorophenyl)-N^4-(1-(trifluoromethyl)cyclopropyl) pyrido[3,2-d]pyrimidine-2,4-diamine] gave a 50% cytotoxic concentration (CC50) at 3 days in data set [1] (Table 2, 3 days incubation) of over 10 µM. Also, in data set [2], the EC50 was 250 to 2000 nM.
In the case of `CC(Nc1nc(NCC(F)(F)F)c2nc(-c3cccc(S(C)(=O)=O)c3)ccc2n1)c1ccc(-n2cncn2)cc1` (stereo not drawn) [Example 19, 6-(3-Methanesulfonyl-phenyl)-N2-[1-(4-[1,2,4]triazol-1-yl-phenyl)-ethyl]-N4-(2,2,2-trifluoro-ethyl)-pyrido[3,2-d]pyrimidine-2,4-diamine], the cytotoxic concentration (CC50) at 3 days in data set [1] (Table 1, 3 days incubation) was in the range of 10 to 25 µM. Also, in data set [2], the EC50 is under 100 nM.
As to `NS(=O)(=O)c1cc(F)cc(CNc2nc(NC3(C(F)(F)F)CC3)c3nc(-c4ccc(F)cc4)ccc3n2)c1` [Example 115, 3-fluoro-5-((6-(4-fluorophenyl)-4-(1-(trifluoromethyl)cyclopropyl-amino)pyrido[3,2-d]pyrimidin-2-ylamino)methyl)benzene-sulfonamide], the CC50 at 3 days in data set [1] (Table 2, 3 days incubation) was 1 to 10 µM. In data set [2], this compound displayed an EC50 of under 100 nM.
The like results for `NS(=O)(=O)c1cc(Cl)cc(CNc2nc(NC3(C(F)(F)F)CC3)c3nc(-c4ccc(N5CNCC5=O)cc4)ccc3n2)c1` [Example 45, 3-chloro-5-((6-(4-(5-oxoimidazolidin-1-yl)phenyl)-4-(1-(trifluoromethyl)cyclopropylamino)pyrido [3,2-d]pyrimidin-2-ylamino)methyl)benzenesulfonamide] were, in that order, 1 to 10 µM and under 100 nM.
On the same counts, the results for `NS(=O)(=O)c1cc(CNc2nc(NC3(C(F)(F)F)CC3)c3nc(C#CC4CC4)ccc3n2)cc(C(F)(F)F)c1` [Example 106, 3-((6-(2-cyclopropylethynyl)-4-(1-(trifluoromethyl)cyclo-propylamino)pyrido[3,2-d]pyrimidin-2-ylamino)methyl)-5-(trifluoromethyl)benzene-sulfonamide] are over 10 µM and under 100 nM.
As for `COc1ccc(-c2ccc3nc(NCc4ccc(S(N)(=O)=O)c(Cl)c4)nc(NCC(F)(F)F)c3n2)cc1S(C)(=O)=O` [Example 147, 2-chloro-4-((6-(4-methoxy-3-(methylsulfonyl)phenyl)-4-(2,2,2-trifluoroethylamino)pyrido[3,2-d]pyrimidin-2-ylamino)methyl)benzene-sulfonamide], the CC50 at 3 days in data set [1] (Table 2, 3 days incubation) is over 10 µM. In data set [2], this compound yielded a concentration giving a half-maximal response (EC50) of under 100 nM.
The like results for `COc1ccc(-c2ccc3nc(NCc4ccc(S(N)(=O)=O)cc4)nc(NC(C(F)(F)F)C(F)(F)F)c3n2)cc1S(C)(=O)=O` [Example 151, 4-((4-(1,1,1,3,3,3-hexafluoropropan-2-ylamino)-6-(4-methoxy-3-(methylsulfonyl)phenyl)pyrido[3,2-d]pyrimidin-2-ylamino)methyl)benzene-sulfonamide] were, in that order, 1 to 10 µM and under 100 nM.
On the same counts, the results for `COc1ccc(-c2ccc3nc(NC(C)c4cc(F)cc(F)c4)nc(NCC(F)(F)F)c3n2)cc1S(N)(=O)=O` (stereo not drawn) [Example 235, 5-(2-(1-(3,5-difluorophenyl)ethylamino)-4-(2,2,2-trifluoroethylamino)pyrido [3,2-d]pyrimidin-6-yl)-2-methoxybenzenesulfonamide] are 1 to 10 µM and 100 to 250 nM.
Turning to `C#Cc1ccc2nc(N[C@H](C)c3ccc(S(N)(=O)=O)cc3)nc(OC3CCC3)c2n1` [Example 307, (R)-4-(1-(4-cyclobutoxy-6-ethynylpyrido[3,2-d]pyrimidin-2-ylamino)ethyl)benzene-sulfonamide], the CC50 at 3 days in data set [1] (Table 2, 3 days incubation) was in the range of 1 to 10 µM. Also, the EC50 in data set [2] lay within 250 to 2000 nM.
In the case of `CS(=O)(=O)c1cccc(-c2ccc3nc(NCc4ccc(-n5cncn5)cc4)nc(NCC(F)(F)Cl)c3n2)c1` [Example 196, N^2-(4-(1H-1,2,4-triazol-1-yl)benzyl)-N^4-(2-chloro-2,2-difluoroethyl)-6-(3-(methylsulfonyl)phenyl)pyrido [3,2-d]pyrimidine-2,4-diamine], in data set [1] (Table 2, 3 days incubation), the 50% cytotoxic concentration (CC50) at 3 days was over 10 µM. For the same compound, in data set [2], the EC50 is under 100 nM.
